Measured values as given in paper PMC10265666, “Lung SPLUNC1 Peptide Derivatives in the Lipid Membrane Headgroup Kill Gram-Negative Planktonic and Biofilm Bacteria” (Biomacromolecules, 2023).
Where “and” joins values, the source holds several entries; their conditions need not be identical. Equal values may be shown once. No end group written: not given here.

Experiments:
HBE cells = format: cell-based
Description: (§1) page 4: Additional toxicity studies at 16 hours incubation with peptides Figure S3. Figure S4. […]

THP-1 cells = format: cell-based
Description: as §1

[1] = Circular dichroism secondary structure in G(−)IM ULVs; format: physicochemical; conditions: 10 μM peptide, 15 mM PBS pH 7, 37 °C
Description: Unilamellar vesicles (ULVs) of ∼600 Å diameter were prepared using an Avanti extruder: 200 μL of 20 mg/ml G(−)IM lipid in 15 mM PBS was extruded 21 times through Nucleopore filters of size 500 Å using 0.2 mL Hamilton syringes in the Avanti extruder. The final concentration of G(−)IM lipid in the ULVs was determined gravimetrically to be 15 mg/ml. Concentrated ULVs were added to 3 mL of 10 μM peptide in 15 mM PBS at pH 7 to create lipid/peptide molar ratios between 0:1 and 70:1. The samples remained at room temperature for ∼16 h before the CD measurement. Data were collected in 3 mL quartz cuvettes using a Jasco 1500 CD spectrophotometer at 37 °C in the Center for Nucleic Acids Science and Technology at Carnegie Mellon University. The samples were scanned from 200 to 240 nm 20 times, and the ellipticity (ϵ) results were averaged. Temperature was controlled at 37 °C via a Peltier element and water circulation through the sample compartment. Nitrogen gas was used at a flow rate between 20 and 25 ft^3/h (CFH). The parameters for scanning were: speed 100 nm/min, step size 1.0 nm, response time 1 second, bandwidth 1 nm, and sensitivity of 20 mdeg. OriginPro 2019 (OriginLab, Northampton, MA) was used to carry out a linear least-squares fit of the smoothed ellipticity traces to four secondary structural motifs representing α-helix, β-sheet, β-turn, and random coil.[20] This analysis gives a percentage match of each of the secondary structural motifs to the total sample ellipticity. Data were finally converted to mean residue ellipticity, taking into account the peptide concentration (10 μMolar) and number of amino acids (N), using the equation: MRE = (10^4/N)ϵ deg cm^2/dmol.

[2] = Circular dichroism secondary structure in Euk33 ULVs; format: physicochemical; conditions: 10 μM peptide, 15 mM PBS pH 7, 37 °C
[3] = tested on: eukaryotic cells vs bacteria; experiment: Therapeutic index (eukaryotic cell kill concentration / bacterial kill concentration); format: cell-based
Description: But more important than cytotoxicity is the therapeutic index (TI), which is the concentration at which ≥90% of eukaryotic cells are killed divided by the concentration at which ≥90% of bacteria are killed. For A4-153, this TI value is an estimated ≈ 128 μM/16 μM ≈ 8. TI for A4-157 is an estimated 128 μM/24 μM ≈ 5, and the TI for A4-183 is an estimated 64 μM/20 μM ≈ 3.

[4] = G(−)IM/peptide molar ratio 10:1
[5] = G(−)IM/peptide molar ratio 15:1
[6] = G(−)IM/peptide molar ratio 20:1
[7] = G(−)IM/peptide molar ratio 25:1
[8] = G(−)IM/peptide molar ratio 30:1
[9] = G(−)IM/peptide molar ratio 50:1

## FKKFLKKFKGWLGGLWGK [A4-183]
HBE cells
  cytotoxicity: greatest cytotoxicity at high concentrations
THP-1 cells
  cytotoxicity: less toxic in THP-1 cells than in the other cell types
[1]; G(−)IM/peptide molar ratio 0:1
  Random: 65.9%
  α-helix: 3.1%
  β-sheet: 31.0%
  β-turn: 0%
[1]; G(−)IM/peptide molar ratio 1:1
  Random: 64.1%
  α-helix: 4.7%
  β-sheet: 31.2%
  β-turn: 0%
[1]; G(−)IM/peptide molar ratio 5:1
  Random: 59.2%
  α-helix: 22.6%
  β-sheet: 18.2%
  β-turn: 0%
[1]; [4]
  Random: 29.1%
  α-helix: 44.4%
  β-sheet: 14.9%
  β-turn: 11.6%
[1]; [5]
  Random: 0.4%
  α-helix: 63.0%
  β-sheet: 14.1%
  β-turn: 22.5%
[1]; [6]
  Random: 12.4%
  α-helix: 66.7%
  β-sheet: 8.8%
  β-turn: 12.1%
[1]; [7]
  Random: 11.7%
  α-helix: 64.9%
  β-sheet: 12.5%
  β-turn: 10.9%
[1]; [8]
  Random: 13.0%
  α-helix: 69.4%
  β-sheet: 8.7%
  β-turn: 8.9%
[1]; [9]
  Random: 18.2%
  α-helix: 63.6%
  β-sheet: 9.1%
  β-turn: 9.1%
[2]; Euk33/peptide molar ratio 0:1
  Random: 65.9%
  α-helix: 3.1%
  β-sheet: 31.0%
  β-turn: 0%
[2]; Euk33/peptide molar ratio 5:1
  Random: 64.1%
  α-helix: 8.6%
  β-sheet: 27.3%
  β-turn: 0%
[2]; Euk33/peptide molar ratio 10:1
  Random: 67.8%
  α-helix: 13.0%
  β-sheet: 19.2%
  β-turn: 0%
[2]; Euk33/peptide molar ratio 20:1
  Random: 61.2%
  α-helix: 10.4%
  β-sheet: 28.4%
  β-turn: 0%
[2]; Euk33/peptide molar ratio 30:1
  Random: 60.0%
  α-helix: 13.6% and 14%
  β-sheet: 26.4%
  β-turn: 0%
[2]; Euk33/peptide molar ratio 70:1
  Random: 37.4%
  α-helix: 12.2%
  β-sheet: 50.4%
  β-turn: 0%
[3]; denominator of TI
  concentration at which ≥90% of bacteria are killed: 20 µM
[3]; numerator of TI
  concentration at which ≥90% of eukaryotic cells are killed (estimated): ~64 µM
